The values below are quoted from earlier work in patent US20220347185A1, “IBOGAINE FORMULATIONS” (CAAMTECH, INC., priority 2019, published 2022).

One data set concerns heroin addicts. As to conditions: 1962.
A further data set concerns humans. As to conditions: Mash et al. 2000.
The conditions of data set [1]: Dzoljic et al. 1988.
The subject of a further data set is rats. As to conditions: single dose, Rodriguez et al. 2020.
For the next data set, the system named is mice. The settings on record: da Silva et al. 2006.

For the compound `CC[C@H]1C[C@@H]2C[C@H]3c4[nH]c5ccc(OC)cc5c4CCN(C2)[C@@H]13` [ibogaine], the “cravings and withdrawal symptoms” value with heroin addicts was “marked reductions in their cravings and withdrawal symptoms”. The depressive symptoms entry with humans is on record as “significantly decreased depressive symptoms”. In addition, the “effectiveness of multiple administrations versus a single dose” value in the data set on rats and mice (additional study results) is listed as “more effective in multiple administrations over time than from a single dose”. Also, the self-administration of opiates result in the data set with rats and mice (rats and mice) was “reduce or interrupt the self-administration of opiates”. Also, under “review papers and meta-analyses”, the treating substance addiction result is “effective for treating substance addiction”. Also, the treating opioid addiction entry (several current studies) is reported as “effective for treating opioid addiction”. For the same compound, in data set [1], the “withdrawal from narcotics addiction” value was “relieve withdrawal from narcotics addiction”. In the data set on rats, the antidepressant effects result is “caused antidepressant effects”.
With `CC[C@H]1C[C@@H]2C[C@H]3c4[nH]c5ccc(O)cc5c4CCN(C2)[C@@H]13` [noribogaine], the antidepressant effects result in the data set with rats is listed as “caused antidepressant effects”.
Regarding `CO[C@H]1C=C2[C@H]3CN(Cc4cc5c(cc43)OCO5)[C@H]2C[C@@H]1O` [montanine], in the data set with mice, the anticonvulsive effect result was “anticonvulsive”, the antidepressive effect entry is given as “antidepressive effects” and the anxiolytic effect entry is recorded as “anxiolytic”.
